# Results taken from patent US11530244B2, “Cyclic polypeptides for PCSK9 inhibition” (priority 2018, dated 2022).
# Starred links: 1 amine or outer side, 2 acyl side, 3 side chain; linkers in the order of their positions; H or OH if unused. Positions of bridges follow the written chain, without caps; N, C: chain ends. Non-standard residues stand in square brackets, D forms with d. Residues, ends and D or L forms follow the SMILES beside them. Phe(4-guanidino) = N=C(N)Nc1ccc(C[C@H](N)C(=O)O)cc1; NMeTrp(1-Me) = CN[C@@H](Cc1cn(C)c2ccccc12)C(=O)O; Ala(imidazol-2-yl) = N[C@@H](Cc1ncc[nH]1)C(=O)O; Phe(4-COOH) = N[C@@H](Cc1ccc(C(=O)O)cc1)C(=O)O; Trp(5-F) = N[C@@H](Cc1c[nH]c2ccc(F)cc12)C(=O)O; X3 = O=C(CCSCc1cc(F)cc(CSCCN[*:1])c1)[*:2]; Pro(cis-4-F) = O=C(O)[C@@H]1C[C@H](F)CN1; X4 = O=C(CCSCc1cccc(CSCCN[*:1])c1)[*:2]; 2Nal = N[C@@H](Cc1ccc2ccccc2c1)C(=O)O; mXylylene = c1cc(C[*:1])cc(C[*:2])c1; Lys(Me2) = CN(C)CCCC[C@H](N)C(=O)O; Hyp = O=C(O)[C@@H]1C[C@@H](O)CN1; NMeT = CN[C@H](C(=O)O)[C@@H](C)O; dNMeL = CN[C@H](CC(C)C)C(=O)O; αMeP = C[C@@]1(C(=O)O)CCCN1; Nva = CCC[C@H](N)C(=O)O; Ava = NCCCCC(=O)O; Mpa = O=C(O)CCS
# Target: PCSK9 (Homo sapiens (Human), UniProt Q8NBP7)
# Sequence (Q8NBP7 153-692): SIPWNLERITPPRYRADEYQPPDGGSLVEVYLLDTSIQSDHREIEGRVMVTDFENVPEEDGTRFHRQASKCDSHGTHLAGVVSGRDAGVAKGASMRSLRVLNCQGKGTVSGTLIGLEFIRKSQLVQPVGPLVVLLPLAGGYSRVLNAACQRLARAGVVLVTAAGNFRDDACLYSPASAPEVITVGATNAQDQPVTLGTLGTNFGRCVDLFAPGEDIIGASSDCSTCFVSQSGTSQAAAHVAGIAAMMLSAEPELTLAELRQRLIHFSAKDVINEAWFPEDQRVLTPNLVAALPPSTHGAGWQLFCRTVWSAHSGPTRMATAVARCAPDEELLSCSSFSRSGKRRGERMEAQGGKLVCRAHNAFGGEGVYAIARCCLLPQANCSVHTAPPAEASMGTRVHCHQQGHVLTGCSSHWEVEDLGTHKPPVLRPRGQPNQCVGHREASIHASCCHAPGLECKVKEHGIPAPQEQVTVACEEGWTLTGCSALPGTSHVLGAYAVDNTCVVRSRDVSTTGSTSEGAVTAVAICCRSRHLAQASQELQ
# Experiment: PCSK9 Alexa FRET Standard assay (displacement of AlexaFluor647 tagged cyclic peptide Reagent A)
# Assay type: binding
# Settings: PCSK9 Alexa FRET Standard assay, 0.5 nM PCSK9, 20 nM AF cyclic peptide Reagent A; read-out: IC50
# Method: A solution containing 1 nM biotinylated PCSK9+2.5 nM Lance Streptavidin Europium (Strep-Eu) was made in 50 mM HEPES pH 7.4, 0.15 M NaCl, 5 mM CaCl2), 0.01% BSA, and 0.01% Surfactant P20. A separate solution containing 40 nM of the AlexaFluor tagged cyclic peptide was made in the same buffer system. An Echo was used to transfer 0.750 ul of compound to an assay plate followed by the addition of 15 ul of PCSK9+Stept-Eu and 15 ul of AF peptide. The final assay volume was 30.750 ul containing 0.5 nM PCSK9, 1.25 nM Strep-Eu, and 20 nM AF cyclic peptide. The reaction was incubated at room temperature for at least two hours prior to fluorescence measurements using an Envision Multilabel Reader. IC50 values were determined by fitting data to a sigmoidal dose-response curve using nonlinear regression. Ki was then calculated from the IC50 and the KD of AF cyclic peptide. Counts (B-counts) of the europium-labeled PCSK9 were followed to observe if compounds were […]. A fall off of the B-counts likely indicated a false positive of inhibition. Data from this procedure was reported as “A=‘numerical value’ (nanomolar)”
row,Structure (SMILES),IC50 [µM]
1,CCC[C@@H]1NC(=O)CCSCc2cccc(c2)CSC[C@@H](C(N)=O)NC(=O)[C@@H]2CCCN2C(=O)[C@H](Cc2ccc(OC)cc2)NC(=O)[C@H]([C@@H](C)OC)N(C)C(=O)[C@@H]2CCCN2C(=O)[C@H](Cc2cn(C)c3ccccc23)N(C)C(=O)[C@H](Cc2ccc3ccccc3c2)NC(=O)[C@@H](CC(C)C)N(C)C1=O [Compound 039] ([Mpa][Nva][dNMeL][2Nal][NMeTrp(1-Me)]P[NMeT](Me)Y(Me)PC-NH2; linker 1-10 via mXylylene),21 to 50
2,COc1ccc(C[C@@H]2NC(=O)[C@H](Cc3cnc[nH]3)NC(=O)[C@H](CC(=O)O)NC(=O)[C@H](Cc3c[nH]c4ccc(F)cc34)NC(=O)[C@H](Cc3c[nH]c4ccc(F)cc34)NC(=O)[C@@H](C)NC(=O)[C@H](NC(C)=O)CCCCNC(=O)c3ccc(cc3)C[C@@H](C(N)=O)NC(=O)[C@]3(C)CCCN3C2=O)cc1 [Compound 341] (Ac-[dK][dA][Trp(5-F)][Trp(5-F)]DHY(Me)[αMeP][Phe(4-COOH)]-NH2; lactam 1-9),21 to 50
3,COc1ccc(C[C@@H]2NC(=O)[C@@H]([C@H](C)O)NC(=O)[C@@H]3C[C@@H](O)CN3C(=O)[C@H](Cc3c[nH]c4ccc(F)cc34)NC(=O)[C@H](Cc3c[nH]c4ccc(F)cc34)NC(=O)[C@@H](C)NC(=O)[C@H](CCCCN)NC(=O)CCSCc3cccc(c3)CSCCNC(=O)[C@]3(C)CCCN3C2=O)cc1 [Compound 084] (cyclo([Hyp][dT]Y(Me)[αMeP][X4]K[dA][Trp(5-F)][Trp(5-F)])),0.1 to 1
4,COc1ccc(C[C@@H]2NC(=O)[C@H](Cc3ncc[nH]3)NC(=O)[C@H](CC(=O)O)NC(=O)[C@H](Cc3c[nH]c4ccc(F)cc34)NC(=O)[C@H](Cc3c[nH]c4ccc(F)cc34)NC(=O)[C@@H](C)NC(=O)[C@H](CCCCN(C)C)NC(=O)CCSCc3cc(F)cc(c3)CSCCNC(=O)[C@]3(C)CCCN3C2=O)cc1 [Compound 465] (cyclo(D[Ala(imidazol-2-yl)]Y(Me)[αMeP][X3][Lys(Me2)][dA][Trp(5-F)][Trp(5-F)])),1 to 12.1
5,COc1ccc(C[C@@H]2NC(=O)[C@H](Cc3ncc[nH]3)NC(=O)[C@H](CC(=O)O)NC(=O)[C@H](Cc3c[nH]c4ccc(F)cc34)NC(=O)[C@H](Cc3c[nH]c4ccc(F)cc34)NC(=O)[C@@H](C)NC(=O)[C@H](CCCCN(C)C)NC(=O)CCSCc3cccc(c3)CSCCNC(=O)[C@]3(C)CCCN3C2=O)cc1 [Compound 463] (cyclo(D[Ala(imidazol-2-yl)]Y(Me)[αMeP][X4][Lys(Me2)][dA][Trp(5-F)][Trp(5-F)])),0.1 to 1
6,C[C@@]12CCCN1C(=O)[C@H](Cc1ccc(O)cc1)NC(=O)CN1CCCC[C@H](NC(=O)[C@H](Cc3c[nH]c4ccc(F)cc34)NC(=O)[C@H](Cc3c[nH]c4ccc(F)cc34)NC(=O)CNC(=O)[C@H](CCCCN)NC(=O)CCSCc3cccc(c3)CSC[C@@H](C(N)=O)NC2=O)C1=O [Compound 104],21 to 50
7,COc1ccc(C[C@@H]2NC(=O)[C@H]([C@@H](C)O)NC(=O)[C@@H]3C[C@H](F)CN3C(=O)[C@H](Cc3c[nH]c4ccc(F)cc34)NC(=O)[C@H](Cc3c[nH]c4ccc(F)cc34)NC(=O)[C@@H](C)NC(=O)CCCCNC(=O)c3ccc(cc3)C[C@@H](C(N)=O)NC(=O)[C@]3(C)CCCN3C2=O)cc1 [Compound 076] ([Ava][dA][Trp(5-F)][Trp(5-F)][Pro(cis-4-F)]TY(Me)[αMeP][Phe(4-COOH)]-NH2; lactam N-9),0.1 to 1
8,COc1ccc(C[C@@H]2NC(=O)[C@H](Cc3ncc[nH]3)NC(=O)[C@H](CC(=O)O)NC(=O)[C@H](Cc3c[nH]c4ccc(F)cc34)NC(=O)[C@H](Cc3c[nH]c4ccc(F)cc34)NC(=O)[C@@H](C)NC(=O)[C@H](Cc3ccc(N=C(N)N)cc3)NC(=O)CCSCc3cccc(c3)CSCCNC(=O)[C@]3(C)CCCN3C2=O)cc1 [Compound 441] (cyclo(D[Ala(imidazol-2-yl)]Y(Me)[αMeP][X4][Phe(4-guanidino)][dA][Trp(5-F)][Trp(5-F)])),21 to 50
